Measurements from ChEMBL document CHEMBL3868631, “Discovery of SOAT2 inhibitors from synthetic small molecules” (Bioorg Med Chem Lett, 2016).

How the values were obtained:
[1] = Cytotoxicity against CHO cells expressing African green monkey SOAT1 assessed as change in cell shape at 10 ug/ml; assay type: toxicity, cell-based, Cricetulus griseus; details: chinese hamster
[2] = Cytotoxicity against CHO cells expressing African green monkey SOAT2 assessed as change in cell shape at 10 ug/ml; assay type: toxicity, cell-based, Cricetulus griseus; details: chinese hamster
[3] = target: T1, Sterol O-acyltransferase 1 (Chlorocebus aethiops, UniProt O77760); test: Inhibition of African green monkey SOAT1 expressed in CHO cells assessed as reduction in [14C]cholesteryl ester formation from [1-14C]oleic acid measured after 6 hrs; assay type: ADME, cell-based
T1 sequence (O77760 whole entry): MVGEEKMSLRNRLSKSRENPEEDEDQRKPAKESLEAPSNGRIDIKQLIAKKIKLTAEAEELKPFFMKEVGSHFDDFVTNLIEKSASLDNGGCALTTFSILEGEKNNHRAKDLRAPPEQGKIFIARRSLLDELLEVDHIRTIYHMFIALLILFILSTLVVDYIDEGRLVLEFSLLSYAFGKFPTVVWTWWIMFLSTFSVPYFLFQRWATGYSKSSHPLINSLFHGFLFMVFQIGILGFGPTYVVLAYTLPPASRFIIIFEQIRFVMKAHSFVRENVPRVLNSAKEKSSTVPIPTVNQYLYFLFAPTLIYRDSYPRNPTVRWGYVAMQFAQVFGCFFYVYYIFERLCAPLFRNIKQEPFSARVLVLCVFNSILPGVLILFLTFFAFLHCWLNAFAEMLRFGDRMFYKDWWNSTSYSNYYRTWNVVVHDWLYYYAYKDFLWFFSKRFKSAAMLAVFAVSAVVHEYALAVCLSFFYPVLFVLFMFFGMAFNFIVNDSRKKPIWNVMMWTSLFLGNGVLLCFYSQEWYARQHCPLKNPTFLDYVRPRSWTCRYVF

[4] = target: T2, Sterol O-acyltransferase 2 (Chlorocebus aethiops, UniProt O77759); test: Inhibition of African green monkey SOAT2 expressed in CHO cells assessed as reduction in [14C]cholesteryl ester formation from [1-14C]oleic acid measured after 6 hrs; assay type: cell-based
T2 sequence (O77759 whole entry): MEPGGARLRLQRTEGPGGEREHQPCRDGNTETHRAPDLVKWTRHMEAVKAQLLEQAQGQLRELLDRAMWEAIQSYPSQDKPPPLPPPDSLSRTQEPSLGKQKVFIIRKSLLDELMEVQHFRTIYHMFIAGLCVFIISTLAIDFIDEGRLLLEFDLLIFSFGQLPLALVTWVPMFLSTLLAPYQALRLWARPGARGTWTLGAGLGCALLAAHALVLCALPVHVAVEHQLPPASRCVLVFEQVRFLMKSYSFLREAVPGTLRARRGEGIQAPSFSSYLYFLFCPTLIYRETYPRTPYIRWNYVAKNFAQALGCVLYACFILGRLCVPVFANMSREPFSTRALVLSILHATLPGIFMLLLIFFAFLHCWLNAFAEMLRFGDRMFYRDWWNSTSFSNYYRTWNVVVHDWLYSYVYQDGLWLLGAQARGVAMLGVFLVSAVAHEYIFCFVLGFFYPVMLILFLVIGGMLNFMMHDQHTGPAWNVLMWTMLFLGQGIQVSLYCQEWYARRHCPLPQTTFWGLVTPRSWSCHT

[5] = Selectivity index, ratio of IC50 for African green monkey SOAT1 expressed in CHO cells to IC50 for African green monkey SOAT2 expressed in CHO cells; set-up: species or system Chlorocebus aethiops
[6] = target: T3, SOAT1 (sterol O-acyltransferase 1) (Chlorocebus aethiops, UniProt O77760); test: Inhibition of African green monkey SOAT1 expressed in CHO cells assessed as reduction in [14C]cholesteryl ester formation from [1-14C]oleic acid at 10 ug/ml measured after 6 hrs relative to control; assay type: ADME, cell-based; details: CHO cells expressing African green monkey SOAT1, probe [1-14C]oleic acid
T3 sequence (O77760 whole entry): T1 sequence (O77760 whole entry)

[7] = target: T4, Sterol O-acyltransferase 2 (Chlorocebus aethiops) (UniProt O77759); test: Inhibition of African green monkey SOAT2 expressed in CHO cells assessed as reduction in [14C]cholesteryl ester formation from [1-14C]oleic acid at 10 ug/ml measured after 6 hrs relative to control; assay type: cell-based
T4 sequence (whole entry): T2 sequence (O77759 whole entry)

SMILES	Activity [1]	Activity [2]	IC50 [3] [µM]	IC50 [4] [µM]	Ratio IC50 [5]	inhibition at 6 h, 10 ug/ml [6] [%]	inhibition [7] [%]
C=CC[C@@]1(O)C[C@@H](CCC)O[C@]2(C1)C(=O)Nc1ccccc12	Non-Toxic	Non-Toxic	–	–	–	–	–
CCC[C@@H]1CC(=O)C[C@@]2(O1)C(=O)N(C)c1cccc(Br)c12	Non-Toxic	Non-Toxic	> 28	9.3	>3	> 50	> 50
CCC[C@@H]1CC(=O)C[C@@]2(O1)C(=O)Nc1cccc(Br)c12	Non-Toxic	Non-Toxic	–	–	–	–	–
CCC[C@@H]1C[C@@H](O)C[C@@]2(O1)C(=O)Nc1ccccc12	Non-Toxic	Non-Toxic	–	–	–	–	–
O=C1C[C@@H](CCCCl)O[C@]2(C1)C(=O)Nc1cccc(Br)c12	Non-Toxic	Non-Toxic	–	–	–	–	–
CCC[C@@H]1CC(=O)C[C@@]2(O1)C(=O)Nc1ccccc12	–	Non-Toxic	–	–	–	–	–
CCC[C@H]1C/C(=N/OCc2ccccc2)C[C@]2(O1)C(=O)Nc1ccccc12	–	–	14	16	0.88	> 50	> 50
CCC[C@@H]1C/C(=N/OCc2ccccc2)C[C@@]2(O1)C(=O)Nc1ccccc12	–	–	16	1.5	10 - 11	> 50	> 50
CCC[C@@H]1CC(=O)C[C@@]2(O1)C(=O)Nc1cccc(Cl)c12	Non-Toxic	Non-Toxic	–	–	–	–	–
CCC[C@@H]1CC(=O)C[C@@]2(O1)C(=O)Nc1ccc(C)cc12	Non-Toxic	Non-Toxic	–	–	–	–	–
O=C1CC(c2ccccc2)O[C@]2(C1)C(=O)Nc1cccc(Br)c12 (mixture of isomers)	Non-Toxic	Non-Toxic	–	–	–	> 50	> 50
CCC[C@@H]1C/C(=N/O)C[C@@]2(O1)C(=O)Nc1ccccc12 (racemic)	Non-Toxic	Non-Toxic	–	–	–	> 50	> 50
CCC[C@@H]1C[C@@H](NCc2ccccc2)C[C@@]2(O1)C(=O)Nc1ccccc12 (racemic)	Non-Toxic	Non-Toxic	> 28	6.8	>4.1	> 50	> 50
CCC[C@@H]1CC(=O)C[C@@]2(O1)C(=O)Nc1ccc(Br)cc12 (racemic)	Non-Toxic	Non-Toxic	–	–	–	–	–
CCC[C@@H]1CC(=NOCc2ccccc2)C[C@@]2(O1)C(=O)Nc1ccccc12 (racemic)	–	–	8.9	3	3	> 50	> 50
CCC[C@@H]1C[C@@H](NCc2ccccc2)C[C@@]2(O1)C(=O)N(C)c1cccc(Br)c12 (racemic)	–	–	> 22	> 33	–	> 50	> 50
CCC[C@@H]1CC(=O)C[C@@]2(O1)C(=O)Nc1ccccc12 (racemic)	Non-Toxic	–	–	–	–	–	–
CCC[C@@H]1C[C@@H](NCc2ccccc2)C[C@@]2(O1)C(=O)N(C)c1ccccc12 (racemic)	–	–	> 27	> 27	–	> 50	> 50
CCC[C@@H]1CC(=O)C[C@@]2(O1)C(=O)Nc1cc(Cl)ccc12 (racemic)	Non-Toxic	Non-Toxic	–	–	–	–	–
CCC[C@@H]1C[C@@H](NCc2ccccc2)C[C@@]2(O1)C(=O)Nc1cccc(Br)c12 (racemic)	–	–	> 23	12	>1.9	> 50	> 50
CCC/C=C/C(=O)CC1(O)C(=O)Nc2ccccc21 (racemic)	Toxic	Toxic	–	–	–	–	–
CCC/C=C/C(=O)CC1(O)C(=O)Nc2cccc(Br)c21 (racemic)	Toxic	Toxic	–	–	–	> 50	> 50
CCC[C@@H]1C[C@@H](NCc2ccccc2)C[C@@]2(O1)C(=O)N(Cc1ccccc1)c1ccccc12 (racemic)	–	–	11	9.1	1.2	> 50	> 50
CCC[C@@H]1C[C@@H](N2CCCC2)C[C@@]2(O1)C(=O)Nc1ccccc12 (racemic)	–	–	> 31	26	>1.2	> 50	> 50
